In article PMC9918186, “Interaction of Positively Charged Oligopeptides with Blood Plasma Proteins” (International Journal of Molecular Sciences, 2023):

Columns and labels:
[1] = test system: γ-globulin fraction (GGF); test: Fluorescence quenching of GGF by peptides L1–3; format: binding; conditions: for Stern–Volmer constant Ksv / binding constant Kb / logKb: GGF 1.0 µM, phosphate buffer; for Stern–Volmer constant Ksv: peptide 0.25–2.0 µM, λex 280 nm; for logKb: double log regression; for quenching rate constant kq: from Ksv with τ0 10^−8 s assumed
Method: Fluorescence spectroscopy was carried out to characterize the mechanism of the interaction between three plasma proteins, BSA, AAG, and GGF, with the studied peptides. The fluorescence spectra of protein were collected during titration of L1–L3. The excitation wavelength was set at λ = 280 nm (both Trp and Tyr residues were excited).
To confirm this, the fluorescence data were further analyzed by the Stern–Volmer Equation (1) after correction due to the infer filter effect (2):(1) F0/F=1+kqτ[Q]=1+KSV (2) Fcorr=Fobs10^(Aex+Aem)/2 where F0 and F are the fluorescence intensities (after correction) of the protein and protein in the presence of L1–3, respectively, kq is the quenching rate constant, τ0 the average lifetime, [Q] is the L1–3 concentration, Ksv is the Stern–Volmer constant, and Fcorr, and Fobs are the corrected and observed fluorescence intensities, respectively. Aex and Aem are the absorbance values at excitation and emission wavelengths, respectively. A linear regression fit was used to calculate the value of the Stern–Volmer constant (Ksv). Then, assuming the average lifetime of the fluorophore in the excited state for a biomolecule as 10^−8 s, the quenching rate constant (kq) was computed. For dynamic quenching, the maximum scatters collision quenching rate constant for different quenchers with the biopolymers was reported to be 2 × 10^10 dm^3mol^−1s^−1 [55, 56]. […] Collisional quenching occurs when the excited-state fluorophore is deactivated by contact with some other molecule in solution (by collisions). […] This is a dynamic mechanism of quenching. The quenching constant characterizes the quenching mechanism. The maximum value for collisional quenching is 2 × 10^10 dm^3mol^−1s^−1. […] For further confirmation, measurements were made at, in addition to 297 K, temperatures 303 and 308 K. Experimental data points were fitted and analyzed using Equation (1).
Both for the complexes with BSA and with GGF, the binding constant (Kb) and the binding stoichiometry (n) were calculated. […] The values of Kb and n were calculated from the slope and the intercept of the log [(F0 − F)/F] versus log [Q] plot (Figure 2).
The forces involved in the interaction can be identified by measurement at different temperatures and then by thermodynamic analysis. The signs of the thermodynamic parameters identify the type of interactions. The enthalpy change (ΔH°), the entropic change (ΔS°), and the free energy change (ΔG°) were calculated from Equations (4) and (5):(4) […]=−ΔH^°/RT+ΔS^°/R (5) ΔG^°=ΔH^°−TΔS^°=−RTlnKb where Kb is the binding constant and R is the universal gas constant. To determine the thermodynamic parameters, the van’t Hoff plot was first conducted, i.e., the temperature dependence of the binding constant, according to Equation (4). The Kb values at the three temperatures were fitted by the linear regression method. The values of ΔH and ΔS were calculated from the slope and intercept at the fitted line. Next, the free energy change (ΔG°) was obtained from Equation (5).

BSA = molecular target: T1, BSA (Bos taurus, UniProt P02769); test: CD spectroscopy, secondary structure of BSA with peptide; design: species or system bovine
T1 construct: purchased Sigma Aldrich
Method: Circular dichroism spectroscopy, similar to fluorescence and FTIR spectroscopies, is a useful method to determine the changes in the secondary structure of proteins in case of the presence of compounds that can interact with protein molecules. Therefore, in this study, the CD spectra for BSA protein and GGF fraction, in the absence and presence of analyzed peptides L1, L2, and L3, were measured (Figure 3). We wanted to check the changes in the course of the spectrum after adding every portion of the analyzed peptides, from 1:0 to 1:1.5 protein to L1–L3 molar ratios.
Circular dichroism (CD) spectroscopy was performed using the Jasco J-1500 magnetic circular dichroism spectrometer (JASCO International CO., Tokyo, Japan). All measurements for the protein solutions in the absence and presence of the analyzed peptides L1, L2, and L3 were made at room temperature under simulated physiological conditions in pH 7.4, in phosphate buffer as a solvent. The phosphate buffer not only controls the stable pH but also imitates the biological environments. However, its use leads to some limitations for CD measurements due to containing NaCl and KCl. The spectra were baseline corrected (phosphate buffer was used as a baseline) and were measured in the range of 205–250 nm at a scan rate speed of 50 nm/min, with a response time of 1 s, and a 10 mm or 5 mm path length for BSA and GGF, respectively. The concentrations of proteins and analyzed peptides were 1 × 10^−6 mol/dm^3 and 1 × 10^−3 mol/dm^3, respectively. Experiments were performed with protein to ligand molar ratios: 1:0, 1:0.25, 1:0.5, 1:0.75, 1:1, and 1:1.5. In total, 3 cm^3 of a solution of each protein was titrated by successive additions of analyzed peptides. The results were analyzed by CD Multivariate Calibration Creation and CD Multivariate SSE programs (JASCO International CO., Tokyo, Japan), with the conversion of protein concentrations for mean residue molar concentrations.

[2] = molecular target: bovine serum albumin (BSA) (Bos taurus, UniProt P02769); test: Site-marker displacement (phenylbutazone, ibuprofen) on BSA, fluorescence; format: binding; design: purchased Sigma Aldrich; conditions: 297 K, BSA 5.0 µM, marker 10.0 µM
Method: To check if L1–L3 bind to BSA at the two Sudlow drug sites (site 1 and 2 [34, 60]), displacement studies were conducted by using phenylbutazone (PHB) and ibuprofen (IBP) as site probes. […] The fluorescence emission spectra of BSA and site markers during the titration of L1–L3 were recorded. The experimental data were analyzed using Equation (3). Binding constants in the presence of site markers were calculated and compared with Kb without PHB or IBP.
Concentrations of BSA and site markers were set at 5.0 × 10^−6 and 10.0 × 10^−6 moldm^−3, respectively.

[3] = BSA:peptide 1:0.25, pH 7.4 phosphate buffer
[4] = BSA:peptide 1:0.5, pH 7.4 phosphate buffer
[5] = BSA:peptide 1:0.75, pH 7.4 phosphate buffer
[6] = BSA:peptide 1:1, pH 7.4 phosphate buffer
[7] = BSA:peptide 1:1.5, pH 7.4 phosphate buffer

T1 sequence (P02769 25-607): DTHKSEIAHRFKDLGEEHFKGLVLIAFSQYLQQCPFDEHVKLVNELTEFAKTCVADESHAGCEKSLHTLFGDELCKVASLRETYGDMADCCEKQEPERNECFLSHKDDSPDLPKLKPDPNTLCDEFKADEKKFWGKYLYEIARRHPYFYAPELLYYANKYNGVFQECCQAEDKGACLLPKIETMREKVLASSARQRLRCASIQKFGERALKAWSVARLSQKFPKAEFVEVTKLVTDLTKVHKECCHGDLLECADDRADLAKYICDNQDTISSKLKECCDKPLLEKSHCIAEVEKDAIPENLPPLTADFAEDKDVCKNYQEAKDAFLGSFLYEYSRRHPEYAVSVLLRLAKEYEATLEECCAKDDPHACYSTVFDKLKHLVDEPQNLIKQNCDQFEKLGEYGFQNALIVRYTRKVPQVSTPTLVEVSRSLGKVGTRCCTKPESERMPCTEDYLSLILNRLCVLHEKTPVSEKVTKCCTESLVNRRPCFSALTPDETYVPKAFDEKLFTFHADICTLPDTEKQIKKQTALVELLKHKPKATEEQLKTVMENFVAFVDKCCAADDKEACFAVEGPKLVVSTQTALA
bovine serum albumin (BSA), sequence (P02769 25-607): as above

In the case of “Lys-Dab-Dab-Gly-Orn-Pro-His-Lys-Arg-Lys-Dbt [L1]”, the “Stern–Volmer constant Ksv” value ([1]; 297 K, inner-filter corrected) is reported as 4.24 ± 0.06 × 10^4 dm^3mol^−1, the “binding constant Kb” value ([1]; 297 K) is reported as 10.10 ± 0.24 × 10^4 dm^3mol^−1 and the logKb ([1]; 297 K) is reported as 5.00 ± 0.12. For the same substance, the “quenching rate constant kq” value ([1]; 297 K) was 4.24 ± 0.06 × 10^12 dm^3mol^−1s^−1, the “Stern–Volmer constant Ksv” value ([1]; 303 K) was 4.03 ± 0.13 × 10^4 dm^3mol^−1 and the “binding constant Kb” value ([1]; 303 K) was 6.17 ± 0.25 × 10^4 dm^3mol^−1. The logKb ([1]; 303 K) was 4.79 ± 0.20, the “quenching rate constant kq” value ([1]; 303 K) was 4.03 ± 0.13 × 10^12 dm^3mol^−1s^−1 and the “Stern–Volmer constant Ksv” value ([1]; 308 K) was 3.60 ± 0.06 × 10^4 dm^3mol^−1. The “binding constant Kb” value ([1]; 308 K) was 2.51 ± 0.12 × 10^4 dm^3mol^−1, the logKb ([1]; 308 K) was 4.39 ± 0.21 and the “quenching rate constant kq” value ([1]; 308 K) was 3.60 ± 0.06 × 10^12 dm^3mol^−1s^−1. The “% Other of BSA” value (BSA; [3]) was 24.6%, the “% β-Sheet of BSA” value (BSA; [3]) was 6.0% and the “% β-Turn of BSA” value (BSA; [3]) was 10.0%. For the same substance, the “% α-Helix of BSA” value (BSA; BSA:peptide 1:0.25, pH 7.4 phosphate buffer, room temperature, BSA 1 µM) was 59.4%, the “% Other of BSA” value (BSA; [4]) was 24.8% and the “% α-Helix of BSA” value (BSA; [4]) was 59.2%. For the same substance, the “% β-Sheet of BSA” value (BSA; [4]) was 5.9%, the “% β-Turn of BSA” value (BSA; [4]) was 10.1% and the “% Other of BSA” value (BSA; [5]) was 25.0%. For the same substance, the “% α-Helix of BSA” value (BSA; [5]) was 58.6%, the “% β-Sheet of BSA” value (BSA; [5]) was 6.3% and the “% β-Turn of BSA” value (BSA; [5]) was 10.1%. The “% Other of BSA” value (BSA; [6]) was 25.0%, the “% α-Helix of BSA” value (BSA; [6]) was 58.5% and the “% β-Sheet of BSA” value (BSA; [6]) was 6.4%. The “% β-Turn of BSA” value (BSA; [6]) was 10.1%, the “% Other of BSA” value (BSA; [7]) was 25.1% and the “% α-Helix of BSA” value (BSA; [7]) was 58.2%. The “% β-Sheet of BSA” value (BSA; [7]) was 6.6%, the “% β-Turn of BSA” value (BSA; [7]) was 10.1% and the “reduction in the percentage of α-helix of BSA” value (BSA; from 1:0 to 1:1.5 BSA:peptide) was 2.5%. It also gave a logKb ([2]; BSA + IBP (site II)) of 4.03 ± 0.15 and a logKb ([2]; BSA + PHB (site I)) of 4.00 ± 0.12.
